Experimental data as given in US10005736B1, “Pyridine and pyrimidine derivatives” (Hoffmann-La Roche Inc., priority 2015, dated 2018).

Legend:
human EAAT3 = molecular target: T1, human EAAT3 (Homo sapiens, UniProt P43005); test: FLIPR Membrane Potential (FMP) assay, antagonist potency at human EAAT3; assay type: cell-based; settings: HEK-293 cells stably expressing human EAAT3; L-glutamate as agonist at EC80; antagonists applied 15 min before; Kb by Cheng-Prusoff from IC50
T1 construct: expressed in transfected cells; host or cells: HEK-293
T1 sequence (P43005 1-524): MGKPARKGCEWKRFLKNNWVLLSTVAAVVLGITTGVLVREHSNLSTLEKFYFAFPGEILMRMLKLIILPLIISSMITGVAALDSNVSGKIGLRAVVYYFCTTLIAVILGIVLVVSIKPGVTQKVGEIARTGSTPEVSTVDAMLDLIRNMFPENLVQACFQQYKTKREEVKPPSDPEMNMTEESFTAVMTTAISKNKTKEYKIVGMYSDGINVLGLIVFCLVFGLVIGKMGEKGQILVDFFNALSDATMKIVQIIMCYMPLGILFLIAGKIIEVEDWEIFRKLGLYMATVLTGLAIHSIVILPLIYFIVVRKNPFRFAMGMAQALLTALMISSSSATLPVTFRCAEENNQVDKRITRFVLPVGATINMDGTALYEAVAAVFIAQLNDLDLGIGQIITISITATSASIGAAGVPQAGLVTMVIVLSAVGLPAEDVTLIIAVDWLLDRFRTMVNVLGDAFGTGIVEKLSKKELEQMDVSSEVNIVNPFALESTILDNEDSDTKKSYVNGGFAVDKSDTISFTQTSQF
Procedure: The FLIPR Membrane Potential (FMP) Assay
HEK-293 cells stably expressing human EAAT3 were seeded at 55 000 cells/well in growth medium (DMEM glutamate free (Invitrogen 11960-044), 1% Pen Strep (10 ml/1 GIBCO BRL N^o 15140-023), 10% FCS non dialysed heat inactivated, 5 mg/l puromycin) in poly-D-lysine treated 96-well black microtiter plates with clear-bottom. After 24 h, the growth medium was removed and […] of Krebs buffer (140 mM NaCl, 4.7 mM KCl, 2.5 mM CaCl2, 1.2 mM MgCl2, 11 mM HEPES, 10 mM D-glucose, pH=7.4) added. The cells were then loaded by adding 100 μl/well FMP assay dye (FLIPR Membrane Potential assay reagent, Molecular Devices). The 96-well plates were then incubated at 37° C. for 1 h. The depolarization of the cells will cause more dye to enter in the cells, where it will bind to intracellular proteins and lipids and cause an increase in the fluorescence signal. Antagonist potency at human EAAT3 was determined by using L-glutamate as agonist at a concentration which gives 80% of the maximum response. The antagonists were applied 15 min before the application of the agonist L-glutamate. The assays were performed at room temperature and measurements done by using a Fluorometric Imaging Plate Reader (FLIPR, Molecular Devices) and filter #2. Responses were measured as peak increase in fluorescence minus basal (i.e. fluorescence without addition of L-glutamate). Kb was determined using the Cheng-Prusoff equation Kb=IC50/[1+(A/EC50)], where IC50 is the concentration of the antagonist producing 50% inhibition, A is the concentration of the agonist against which the IC50 is being determined (at EC80) and EC50 is the concentration of the agonist producing 50% […].

| SMILES | Kb (human EAAT3) [nM] | melting point [°C] |
| --- | --- | --- |
| CC(C)c1ncncc1-c1cc(C(=O)NC2(C)CCS(=O)(=O)C2)cc(-c2ccc(Cl)cc2)c1 (racemic) [Example 12, (RS)-3-(4-Chlorophenyl)-N-(3-methyl-1,1-dioxothiolan-3-yl)-5-(4-propan-2-ylpyrimidin-5-yl)-benzamide] | 310 | – |
| Cc1ncccc1-c1cc(C(=O)NC2(C)CCS(=O)(=O)C2)cc(-c2ccc(Cl)cc2)c1 (racemic) [Example 13, (RS)-3-(4-Chlorophenyl)-N-(3-methyl-1,1-dioxothiolan-3-yl)-5-(2-methyl-pyridin-3-yl)-benzamide] | 510 | – |
| CCC(C)(C)NC(=O)c1cc(-c2ccc(C)cc2)cc(-c2cccnc2)c1 [Example 1, N-(2-Methylbutan-2-yl)-3-(4-methylphenyl)-5-pyridin-3-ylbenzamide] | 325 | – |
| CCC(C)(C)NC(=O)c1cc(-c2ccc(C)cc2)cc(-c2cncnc2)c1 [Example 2, N-(2-Methylbutan-2-yl)-3-(4-methylphenyl)-5-pyrimidin-5-ylbenzamide] | 220 | – |
| CCC(C)(C)NC(=O)c1cc(-c2ccc(C)cc2)cc(-c2cncnc2C(C)C)c1 [Example 3, N-(2-Methylbutan-2-yl)-3-(4-methylphenyl)-5-(4-propan-2-ylpyrimidin-5-yl)-benzamide] | 230 | – |
| CCC(C)(C)NC(=O)c1cc(-c2ccc(C)cc2)cc(-c2cnccc2C)c1 [Example 4, N-(2-Methylbutan-2-yl)-3-(4-methylphenyl)-5-(4-methylpyridin-3-yl)-benzamide] | 290 | – |
| CCC(C)(C)NC(=O)c1cc(-c2ccc(C)cc2)cc(-c2cccnc2C)c1 [Example 5, N-(2-Methylbutan-2-yl)-3-(4-methylphenyl)-5-(2-methylpyridin-3-yl)-benzamide] | 250 | – |
| CCC(C)(C)NC(=O)c1cc(-c2ccc(C)cc2)cc(-c2cnccc2C(C)C)c1 [Example 6, N-(2-Methylbutan-2-yl)-3-(4-methylphenyl)-5-(4-propan-2-ylpyridin-3-yl)-benzamide] | 380 | – |
| Cc1ccncc1-c1cc(C(=O)NC(C)(C)C)cc(-c2ccc(Cl)cc2)c1 [Example 7, N-tert-Butyl-3-(4-chlorophenyl)-5-(4-methylpyridin-3-yl)-benzamide] | 310 | – |
| CC(C)(C)NC(=O)c1cc(-c2ccc(Cl)cc2)cc(-c2cccnc2)c1 [Example 8, N-tert-Butyl-3-(4-chlorophenyl)-5-pyridin-3-ylbenzamide] | 350 | 177 |
| CC(C)c1ccncc1-c1cc(C(=O)NC(C)(C)C)cc(-c2ccc(Cl)cc2)c1 [Example 9, N-tert-Butyl-3-(4-chlorophenyl)-5-(4-propan-2-ylpyridin-3-yl)-benzamide] | 540 | 148 |
| CC(C)(C)NC(=O)c1cc(-c2ccc(Cl)cc2)cc(-c2cncnc2)c1 [Example 10, N-tert-Butyl-3-(4-chlorophenyl)-5-pyrimidin-5-ylbenzamide] | 270 | 195 |
| CC(C)c1ncncc1-c1cc(C(=O)NC(C)(C)C)cc(-c2ccc(Cl)cc2)c1 [Example 11, N-tert-Butyl-3-(4-chlorophenyl)-5-(4-propan-2-ylpyrimidin-5-yl)-benzamide] | 230 | 182 |
| CCC(C)(C)NC(=O)c1cc(-c2ccc(C)cc2)cc(-c2cccnc2C(C)C)c1 [Example 14, N-(2-Methylbutan-2-yl)-3-(4-methylphenyl)-5-(2-propan-2-ylpyridin-3-yl)-benzamide] | 570 | – |
| CC(C)c1ncccc1-c1cc(C(=O)NC(C)(C)C)cc(-c2ccc(Cl)cc2)c1 [Example 15, N-tert-Butyl-3-(4-chlorophenyl)-5-(2-propan-2-ylpyridin-3-yl)-benzamide] | 630 | – |
| CC(C)c1ncncc1-c1cc(C(=O)NC(C)(C)C2CC2)cc(-c2ccc(Cl)cc2)c1 [Example 16, 3-(4-Chlorophenyl)-N-(2-cyclopropylpropan-2-yl)-5-(4-propan-2-ylpyrimidin-5-yl)-benzamide] | 420 | – |

| SMILES | Kb (human EAAT3) [nM] | melting point [°C] |
| --- | --- | --- |
| Cc1ncccc1-c1cc(C(=O)NC(C)(C)C2CC2)cc(-c2ccc(Cl)cc2)c1 [Example 17, 3-(4-Chlorophenyl)-N-(2-cyclopropylpropan-2-yl)-5-(2-methylpyridin-3-yl)-benzamide] | 640 | – |
| CC(C)c1ncncc1-c1cc(C(=O)NC(C)(C)C(F)(F)F)cc(-c2ccc(Cl)cc2)c1 [Example 18, 3-(4-Chlorophenyl)-5-(4-propan-2-ylpyrimidin-5-yl)-N-(1,1,1-trifluoro-2-methylpropan-2-yl)-benzamide] | 250 | 170 |
| Cc1ncccc1-c1cc(C(=O)NC(C)(C)C(F)(F)F)cc(-c2ccc(Cl)cc2)c1 [Example 19, 3-(4-Chlorophenyl)-5-(2-methylpyridin-3-yl)-N-(1,1,1-trifluoro-2-methylpropan-2-yl)-benzamide] | 340 | – |
| CC(C)c1ncncc1-c1cc(C(=O)NC(C)(C)C)cc(-c2ccc(F)cc2)c1 [Example 20, N-tert-Butyl-3-(4-fluorophenyl)-5-(4-propan-2-ylpyrimidin-5-yl)-benzamide] | 81 | 79 |
| Cc1ccncc1-c1cc(C(=O)NC(C)(C)C)cc(-c2ccc(F)cc2)c1 [Example 21, N-tert-Butyl-3-(4-fluorophenyl)-5-(4-methylpyridin-3-yl)-benzamide] | 200 | 83 |
| CC(C)c1ncncc1-c1cc(C(=O)NC(C)(C)C2CC2)cc(-c2ccc(F)cc2)c1 [Example 22, N-(2-Cyclopropylpropan-2-yl)-3-(4-fluorophenyl)-5-(4-propan-2-ylpyrimidin-5-yl)-benzamide] | 57 | 74 |
| Cc1ncncc1-c1cc(C(=O)NC(C)(C)C)cc(-c2ccc(Cl)cc2)c1 [Example 41, N-tert-Butyl-3-(4-chlorophenyl)-5-(4-methyl-pyrimidin-5-yl)-benzamide] | – | 192 |
| CC(C)(C)NC(=O)c1cc(-c2ccc(Cl)cc2)cc(-c2cncnc2C(C)(C)C)c1 [Example 42, N-tert-Butyl-3-(4-tert-butyl-pyrimidin-5-yl)-5-(4-chlorophenyl)-benzamide] | – | 108 |
| CC(C)c1ncncc1-c1cc(C(=O)NC(C)(C)CO)cc(-c2ccc(Cl)cc2)c1 [Example 43, 3-(4-Chlorophenyl)-N-(1-hydroxy-2-methylpropan-2-yl)-5-(4-propan-2-yl-pyrimidin-5-yl)-benzamide] | – | 86 |
| CC(C)c1ncncc1-c1cc(C(=O)NC(C)(C)CO)cc(-c2ccc(F)cc2)c1 [Example 44, 3-(4-Fluorophenyl)-N-(1-hydroxy-2-methylpropan-2-yl)-5-(4-propan-2-yl-pyrimidin-5-yl)-benzamide] | – | 63 |
| CC(C)c1ncncc1-c1cc(C(=O)NC(C)(C)CO)cc(-c2ccc(C(F)(F)F)cc2)c1 [Example 45, N-(1-Hydroxy-2-methylpropan-2-yl)-3-(4-propan-2-yl-pyrimidin-5-yl)-5-[4-(trifluoromethyl)-phenyl]-benzamide] | – | 80 |
| CC(C)(C)NC(=O)c1cc(-c2ccc(F)c(F)c2)cc(-c2cncnc2C(C)(C)C)c1 [Example 48, N-tert-Butyl-3-(4-tert-butyl-primidin-5-yl)-5-(3,4-difluorophenyl)-benzamide] | – | 99 |
| CC(C)(C)NC(=O)c1cc(-c2ccc(C(F)(F)F)cc2)cc(-c2cncnc2C(C)(C)C)c1 [Example 49, N-tert-Butyl-3-(4-tert-butyl-pyrimidin-5-yl)-5-[4-(trifluoromethyl)-phenyl]-benzamide] | – | 91 |
| CC(C)(C)NC(=O)c1cc(-c2ccc(F)cc2)cc(-c2cncnc2C(C)(C)C)c1 [Example 51, N-tert-Butyl-3-(4-tert-butyl-pyrimidin-5-yl)-5-(4-fluorophenyl)-benziimide] | – | 102 |
| CC(C)(C)NC(=O)c1cc(-c2ccc(Cl)cc2)cc(-c2cnccc2C(C)(C)C)c1 [Example 53, N-tert-Butyl-3-(4-tert-butylpyridin-3-yl)-5-(4-chlorophenyl)-benzamide] | – | 63.5 |
